Data reported in ChEMBL document CHEMBL1124186, “Synthesis and evaluation of tylosin-related macrolides modified at the aldehyde function: a new series of orally effective antibiotics” (1988).
Converted amounts (≈) assume the structure as drawn.

Experiments:
[1] = tested on: Bacteroides fragilis; assay: In vitro antimicrobial activity against anaerobic bacteria bacteroides fragilis 111; assay type: functional
[2] = tested on: Bacteroides fragilis; assay: In vitro antimicrobial activity against anaerobic bacteria bacteroides fragilis 1877; assay type: functional
[3] = tested on: Bacteroides fragilis; assay: In vitro antimicrobial activity against anaerobic bacteria bacteroides fragilis 1936B,; assay type: functional
[4] = tested on: Eikenella corrodens; assay: In vitro antimicrobial activity against anaerobic bacteria bacteroides corrodens 1874; assay type: functional
[5] = tested on: Phocaeicola vulgatus; assay: In vitro antimicrobial activity against anaerobic bacteria bacteroides vulgatus 1211; assay type: functional
[6] = tested on: Prevotella melaninogenica; assay: In vitro antimicrobial activity against anaerobic bacteria bacteroides melaninogenicus 1856,; assay type: functional
[7] = tested on: Bacteroides thetaiotaomicron; assay: In vitro antimicrobial activity against anaerobic bacteria bacteroides thetaiotaomicron 1438; assay type: functional
[8] = tested on: Clostridioides difficile; assay: In vitro antimicrobial activity against anaerobic bacteria Clostridium difficile 2994; assay type: functional
[9] = tested on: Clostridium perfringens; assay: In vitro antimicrobial activity against anaerobic bacteria clostridium perfringens 81,; assay type: functional
[10] = tested on: Clostridium septicum; assay: In vitro antimicrobial activity against anaerobic bacteria clostridium septicum 1128; assay type: functional
[11] = tested on: Chlamydia trachomatis; assay: In vitro antimicrobial activity against chlamydia trachomatis.; assay type: functional
[12] = tested on: Fusobacterium; assay: In vitro antimicrobial activity against anaerobic bacteria fusobacterium symbiosum 1470; assay type: functional
[13] = tested on: Haemophilus influenzae; assay: In vitro antimicrobial activity against aerobic bacteria Haemophilus influenzae 76; assay type: functional
[14] = tested on: Haemophilus influenzae; assay: In vitro antimicrobial activity against aerobic bacteria Haemophilus influenzae MX366; assay type: functional
[15] = tested on: Haemophilus influenzae; assay: In vitro antimicrobial activity against Haemophilus influenzae.; assay type: functional
[16] = In vitro antimicrobial activity against anaerobic bacteria peptostreptococcus intermedius 1264; assay type: functional
[17] = tested on: Peptoniphilus asaccharolyticus; assay: In vitro antimicrobial activity against anaerobic bacteria peptococcus asaccharolyticus 1302; assay type: functional
[18] = tested on: Anaerococcus prevotii; assay: In vitro antimicrobial activity against anaerobic bacteria peptococcus prevoti 1281; assay type: functional
[19] = tested on: Cutibacterium acnes; assay: In vitro antimicrobial activity against anaerobic bacteria propionibacterium acnes 79; assay type: functional
[20] = tested on: Streptococcus; assay: In vitro antimicrobial activity against aerobic bacteria Streptococcus B 14; assay type: functional
[21] = tested on: Streptococcus; assay: In vitro antimicrobial activity against aerobic bacteria Streptococcus B 8; assay type: functional
[22] = tested on: Streptococcus; assay: In vitro antimicrobial activity against aerobic bacteria Streptococcus C 24; assay type: functional
[23] = tested on: Streptococcus; assay: In vitro antimicrobial activity against aerobic bacteria Streptococcus D 8043; assay type: functional
[24] = tested on: Streptococcus; assay: In vitro antimicrobial activity against aerobic bacteria Streptococcus D 9960; assay type: functional
[25] = tested on: Streptococcus; assay: In vitro antimicrobial activity against aerobic bacteria Streptococcus G Kruder; assay type: functional; conditions: Streptococcus; read-out: MIC
[26] = tested on: Staphylococcus epidermidis; assay: In vitro antimicrobial activity against aerobic bacteria Streptococcus epi 270; assay type: functional
[27] = tested on: Streptococcus pneumoniae; assay: In vivo effective dose against experimental infections in mice Strep. pneumoniae park when administered sc; assay type: functional
[28] = tested on: Staphylococcus aureus; assay: In vitro antimicrobial activity against Staphylococcus aureus X1; assay type: functional
[29] = tested on: Staphylococcus aureus; assay: In vitro antimicrobial activity against aerobic bacteria Staphylococcus aureus 513E; assay type: functional
[30] = tested on: Staphylococcus aureus; assay: In vitro antimicrobial activity against aerobic bacteria Staphylococcus aureus V140,; assay type: functional
[31] = tested on: Staphylococcus aureus; assay: In vitro antimicrobial activity against aerobic bacteria Staphylococcus aureus V41; assay type: functional
[32] = tested on: Staphylococcus aureus; assay: In vitro antimicrobial activity against aerobic bacteria Staphylococcus aureus X400; assay type: functional
[33] = tested on: Streptococcus pneumoniae; assay: In vitro antimicrobial activity against aerobic bacteria Streptococcus pneumoniae B1-438; assay type: functional, streptococcus pneum
[34] = tested on: Streptococcus pneumoniae; assay: In vivo effective dose against experimental infections in mice Strep. pneumoniae park when administered orally; assay type: functional; conditions: po
[35] = tested on: Streptococcus pyogenes; assay: In vivo effective dose against experimental infections in rodent caused by Streptococcus pyogenes C203 when administered sc; assay type: functional
[36] = tested on: Streptococcus sanguinis; assay: In vitro antimicrobial activity against aerobic bacteria Streptococcus sanguis MX132; assay type: functional
[37] = tested on: Streptococcus pneumoniae; assay: In vitro antimicrobial activity against Streptococcus pneumoniae; assay type: functional
[38] = tested on: Staphylococcus epidermidis; assay: In vitro antimicrobial activity against Staphylococcus epidermidis EPI1; assay type: functional
[39] = tested on: Staphylococcus epidermidis; assay: In vitro antimicrobial activity against aerobic bacteria Streptococcus epi 222; assay type: functional
[40] = tested on: Staphylococcus aureus; assay: In vivo effective dose against experimental infections in mice Staphylococcus aureus X1 when administered orally; assay type: functional; conditions: po
[41] = tested on: Staphylococcus aureus; assay: In vivo effective dose against experimental infections in mice Staphylococcus aureus X1 when administered sc; assay type: functional
[42] = tested on: Enterococcus faecium; assay: In vitro antimicrobial activity against Streptococcus faecium X66; assay type: functional, streptococcus fae-cium
[43] = tested on: Streptococcus pyogenes; assay: In vitro antimicrobial activity against Streptococcus pyogenes C203; assay type: functional
[44] = tested on: Streptococcus viridans; assay: In vitro antimicrobial activity against aerobic bacteria Streptococcus viridans 9943; assay type: functional
[45] = tested on: Streptococcus; assay: In vitro antimicrobial activity against aerobic bacteria Streptococcus B 5; assay type: functional
[46] = tested on: Staphylococcus aureus; assay: In vitro antimicrobial activity against aerobic bacteria Staphylococcus aureus V135; assay type: functional
[47] = tested on: Prevotella melaninogenica; assay: In vitro antimicrobial activity against anaerobic bacteria bacteroides melaninogenicus 2736; assay type: functional
[48] = tested on: Fusobacterium necrophorum; assay: In vitro antimicrobial activity against anaerobic bacteria usobacterium necrophorum 6054A; assay type: functional
[49] = tested on: Collinsella aerofaciens; assay: In vitro antimicrobial activity against anaerobic bacteria eubacterium aerofaciens 1235; assay type: functional
[50] = tested on: Streptococcus; assay: In vitro antimicrobial activity against aerobic bacteria Streptococcus D 2041; assay type: functional
[51] = tested on: Peptostreptococcus anaerobius; assay: In vitro antimicrobial activity against anaerobic bacteria eubacterium peptostreptococcus anaerobius 1428,; assay type: functional
[52] = tested on: Streptococcus pyogenes; assay: In vivo effective dose against experimental infections in rodent caused by Streptococcus pyogenes C203 when administered subcutaneously; assay type: functional; conditions: sc
[53] = tested on: Streptococcus pyogenes; assay: In vivo effective dose against experimental infections in rodent caused by Streptococcus pyogenes C203 when administered orally; assay type: functional; conditions: po

## CC[C@H]1OC(=O)C[C@@H](O)[C@H](C)[C@@H](O[C@@H]2O[C@H](C)[C@@H](O)[C@H](N(C)C)[C@H]2O)[C@@H](CCN=[N+]=[N-])C[C@@H](C)C(=O)/C=C/C(C)=C/[C@@H]1CO[C@@H]1O[C@H](C)[C@@H](O)[C@@H](OC)[C@H]1OC
[1]
  MIC: 2 µg/mL (≈ 2.5 µM)
[2]
  MIC: 2 µg/mL (≈ 2.5 µM)
[3]
  MIC: 2 µg/mL (≈ 2.5 µM)
[4]
  MIC: 2 µg/mL (≈ 2.5 µM)
[5]
  MIC: 2 µg/mL (≈ 2.5 µM)
[6]
  MIC: 1 µg/mL (≈ 1.25 µM)
[7]
  MIC: 2 µg/mL (≈ 2.5 µM)
[8]
  MIC: < 0.5 µg/mL
[9]
  MIC: < 0.5 µg/mL
[10]
  MIC: < 0.5 µg/mL
[11]
  MIC: 0.5 µg/mL (≈ 0.626 µM)
[12]
  MIC: 2 µg/mL (≈ 2.5 µM)
[13]
  MIC: 4 µg/mL (≈ 5.01 µM)
[14]
  MIC: 32 µg/mL (≈ 40.1 µM)
[15]
  MIC: 16 µg/mL (≈ 20 µM)
[16]
  MIC: 2 µg/mL (≈ 2.5 µM)
[17]
  MIC: 1 µg/mL (≈ 1.25 µM)
[18]
  MIC: 2 µg/mL (≈ 2.5 µM)
[19]
  MIC: 16 µg/mL (≈ 20 µM)
[20]
  MIC: 16 µg/mL (≈ 20 µM)
[21]
  MIC: 8 µg/mL (≈ 10 µM)
[22]
  MIC: 0.5 µg/mL (≈ 0.626 µM)
[23]
  MIC: 4 µg/mL (≈ 5.01 µM)
[24]
  MIC: 8 µg/mL (≈ 10 µM)
[25]
  MIC: 64 µg/mL (≈ 80.1 µM)
[26]
  MIC: > 128 µg/mL
[27]
  ED50: > 20 mg/kg
[28]
  MIC: 0.12 µg/mL (≈ 0.15 µM)
[29]
  MIC: 0.12 µg/mL (≈ 0.15 µM)
[30]
  MIC: 0.25 µg/mL (≈ 0.313 µM)
[31]
  MIC: 0.12 µg/mL (≈ 0.15 µM)
[32]
  MIC: 0.25 µg/mL (≈ 0.313 µM)
[33]
  MIC: > 128 µg/mL
[34]
  ED50: > 50 mg/kg
[35]
  ED50: 3.8 mg/kg
[36]
  MIC: 1 µg/mL (≈ 1.25 µM)
[37]
  MIC: 2 µg/mL (≈ 2.5 µM)
[38]
  MIC: 0.12 µg/mL (≈ 0.15 µM)
[39]
  MIC: 0.25 µg/mL (≈ 0.313 µM)
[40]
  ED50: 18 mg/kg
[41]
  ED50: 2.8 mg/kg
[42]
  MIC: 4 µg/mL (≈ 5.01 µM)
[43]
  MIC: 0.25 µg/mL (≈ 0.313 µM)
[44]
  MIC: > 128 µg/mL
[45]
  MIC: 8 µg/mL (≈ 10 µM)
[46]
  MIC: 0.25 µg/mL (≈ 0.313 µM)
[47]
  MIC: 2 µg/mL (≈ 2.5 µM)
[48]
  MIC: 16 µg/mL (≈ 20 µM)
[49]
  MIC: 2 µg/mL (≈ 2.5 µM)
[50]
  MIC: 16 µg/mL (≈ 20 µM)
[51]
  MIC: < 0.5 µg/mL

## CC[C@H]1OC(=O)C[C@@H](O)[C@H](C)[C@@H](O[C@@H]2O[C@H](C)[C@@H](O[C@H]3C[C@@](C)(O)[C@@H](O)[C@H](C)O3)[C@H](N(C)C)[C@H]2O)[C@@H](CCO)C[C@@H](C)C(=O)/C=C/C(C)=C/[C@@H]1CO[C@@H]1O[C@H](C)[C@@H](O)[C@@H](O)[C@H]1OC
[15]
  MIC: > 128 µg/mL
[28]
  MIC: 16 µg/mL (≈ 17.7 µM)
[52]
  ED50: > 10 mg/kg
[37]
  MIC: 32 µg/mL (≈ 35.4 µM)
[38]
  MIC: 4 µg/mL (≈ 4.42 µM)
[42]
  MIC: 128 µg/mL (≈ 142 µM)
[43]
  MIC: 4 µg/mL (≈ 4.42 µM)
[53]
  ED50: > 100 mg/kg
